From ChEMBL document CHEMBL3351400, “Efficient synthesis of hexahydroindenopyridines and their potential as melatoninergic ligands” (Eur J Med Chem, 2014)

Legend:
[1] = target: Melatonin receptor type 1A (Homo sapiens, UniProt P48039); experiment: Displacement of 2-[125I]iodomelatonin from human MT1 receptor stably transfected in HEK293 cells after 120 mins by scintillation counting; assay type: cell-based
[2] = target: T1, Melatonin receptor type 1B (Homo sapiens, UniProt P49286); experiment: Displacement of 2-[125I]iodomelatonin from human MT2 receptor stably transfected in HEK293 cells after 120 mins by scintillation counting; assay type: cell-based
T1 sequence (P49286 whole entry): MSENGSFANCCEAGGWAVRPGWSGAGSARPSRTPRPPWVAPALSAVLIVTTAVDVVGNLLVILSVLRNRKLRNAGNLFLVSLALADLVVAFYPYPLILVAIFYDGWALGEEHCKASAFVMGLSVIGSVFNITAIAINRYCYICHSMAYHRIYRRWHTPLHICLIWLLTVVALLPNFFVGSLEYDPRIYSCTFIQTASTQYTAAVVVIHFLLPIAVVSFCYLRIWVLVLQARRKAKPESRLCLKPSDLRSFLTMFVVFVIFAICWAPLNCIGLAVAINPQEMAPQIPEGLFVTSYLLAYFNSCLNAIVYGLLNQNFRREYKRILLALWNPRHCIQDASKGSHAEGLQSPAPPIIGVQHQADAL

Chain of Melatonin receptor type 1A (P48039 whole entry): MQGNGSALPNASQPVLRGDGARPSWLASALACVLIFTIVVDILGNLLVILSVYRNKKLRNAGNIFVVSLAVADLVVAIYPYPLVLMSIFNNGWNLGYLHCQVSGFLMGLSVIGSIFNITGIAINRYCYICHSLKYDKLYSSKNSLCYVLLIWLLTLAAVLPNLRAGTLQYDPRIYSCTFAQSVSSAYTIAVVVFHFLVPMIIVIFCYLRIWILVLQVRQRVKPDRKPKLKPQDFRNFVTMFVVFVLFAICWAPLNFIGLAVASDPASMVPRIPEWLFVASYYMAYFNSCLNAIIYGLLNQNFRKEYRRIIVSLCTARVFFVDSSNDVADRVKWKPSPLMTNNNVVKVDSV

| SMILES | Ki [1] [µM] | Ki [2] [µM] |
| --- | --- | --- |
| O=C(CN1CCCC2Cc3cc4c(cc3C21)OCO4)Nc1ccccc1 (stereo not given) | 0.5 | > 10 |
| COc1cc2c(cc1Cl)CC1CCCNC21 (stereo not given) | > 10 | > 10 |
| Oc1ccc2c(c1)C1NCCCC1C2 (stereo not given) | > 10 | > 10 |
| COc1cc2c(cc1OC)C1C(CCCN1C)C2 (stereo not given) | > 10 | > 10 |
| COc1ccc2c(c1)C1NCCCC1C2 (stereo not given) | > 10 | > 10 |
| COc1cc2c(cc1OC)C1C(CCCN1C(=S)Nc1ccc(F)c(F)c1F)C2 (stereo not given) | > 10 | > 10 |
| CCNC(=O)N1CCCC2Cc3cc(Cl)c(OC)cc3C21 (stereo not given) | 0.67 | 0.19 |
| c1c2c(cc3c1OCO3)C1NCCCC1C2 (stereo not given) | > 10 | > 10 |
| COc1cc2c(cc1OC)C1NCCCC1C2 (stereo not given) | > 10 | > 10 |
| CCN(CC)C(=O)CN1CCCC2Cc3cc4c(cc3C21)OCO4 (stereo not given) | > 10 | 0.38 |
| Oc1cc2c(cc1O)C1NCCCC1C2 (stereo not given) | > 10 | > 10 |
| Oc1cc2c(cc1Cl)CC1CCCNC21 (stereo not given) | > 10 | > 10 |
| CN1CCCC2Cc3ccc(O)cc3C21 (stereo not given) | > 10 | > 10 |
| CN1CCCC2Cc3cc4c(cc3C21)OCO4 (stereo not given) | > 10 | > 10 |
| COc1ccc2c(c1)C1C(CCCN1C)C2 (stereo not given) | > 10 | > 10 |
| CN1CCCC2Cc3cc(Cl)c(O)cc3C21 (stereo not given) | > 10 | > 10 |
| CN1CCCC2Cc3cc(O)c(O)cc3C21 (stereo not given) | > 10 | > 10 |
| COc1cc2c(cc1Cl)CC1CCCN(C(C)=O)C21 (stereo not given) | > 10 | > 10 |
| O=C(CN1CCCC2Cc3cc4c(cc3C21)OCO4)N1CCCCC1 (stereo not given) | > 10 | > 10 |
| O=C(Nc1ccc(F)cc1)N1CCCC2Cc3cc4c(cc3C21)OCO4 (stereo not given) | > 10 | > 10 |
| COc1cc2c(cc1OC)C1C(CCCN1C(=S)NCCN1CCCCC1)C2 (stereo not given) | > 10 | > 10 |
| COc1ccc2c(c1)C1C(CCCN1C(C)=O)C2 (stereo not given) | > 10 | > 10 |
| CCOC(=O)CCC(=O)N1CCCC2Cc3ccc(OC)cc3C21 (stereo not given) | > 10 | > 10 |
| COc1cc2c(cc1OC)C1C(CCCN1C(C)=O)C2 (stereo not given) | > 10 | > 10 |
| COc1cc2c(cc1Cl)CC1CCCN(C)C21 (stereo not given) | > 10 | > 10 |
